Experimental data as given in patent US20240100038A1, “USE OF THE AXL INHIBITOR SLC-391 AS ANTIVIRAL THERAPEUTIC AGENT” (SignalChem Lifesciences Corporation, priority 2021, published 2024).
Like-named read-outs stand apart in the source and are kept apart here.

Legend:
Ebola virus = conditions: animal models (Dowall 2016); cited from earlier work
SARS-CoV-2 [1] = conditions: cited from earlier work
ZEB1 = conditions: Stewart 2020; cited from earlier work
AXL [2] = conditions: cultured cell assays; cited from earlier work
MER [3] = conditions: cultured cell assays; cited from earlier work
[4] = system: virus infection of wild type bone marrow-derived dendritic cells; conditions: wild type bone marrow-derived dendritic cells (Bhattacharyya 2013); cited from earlier work
AXL [5] = biological target: T1, AXL (Homo sapiens, UniProt P30530); experiment: AXL kinase inhibition; type: biochemical
T1 sequence (P30530 26-894): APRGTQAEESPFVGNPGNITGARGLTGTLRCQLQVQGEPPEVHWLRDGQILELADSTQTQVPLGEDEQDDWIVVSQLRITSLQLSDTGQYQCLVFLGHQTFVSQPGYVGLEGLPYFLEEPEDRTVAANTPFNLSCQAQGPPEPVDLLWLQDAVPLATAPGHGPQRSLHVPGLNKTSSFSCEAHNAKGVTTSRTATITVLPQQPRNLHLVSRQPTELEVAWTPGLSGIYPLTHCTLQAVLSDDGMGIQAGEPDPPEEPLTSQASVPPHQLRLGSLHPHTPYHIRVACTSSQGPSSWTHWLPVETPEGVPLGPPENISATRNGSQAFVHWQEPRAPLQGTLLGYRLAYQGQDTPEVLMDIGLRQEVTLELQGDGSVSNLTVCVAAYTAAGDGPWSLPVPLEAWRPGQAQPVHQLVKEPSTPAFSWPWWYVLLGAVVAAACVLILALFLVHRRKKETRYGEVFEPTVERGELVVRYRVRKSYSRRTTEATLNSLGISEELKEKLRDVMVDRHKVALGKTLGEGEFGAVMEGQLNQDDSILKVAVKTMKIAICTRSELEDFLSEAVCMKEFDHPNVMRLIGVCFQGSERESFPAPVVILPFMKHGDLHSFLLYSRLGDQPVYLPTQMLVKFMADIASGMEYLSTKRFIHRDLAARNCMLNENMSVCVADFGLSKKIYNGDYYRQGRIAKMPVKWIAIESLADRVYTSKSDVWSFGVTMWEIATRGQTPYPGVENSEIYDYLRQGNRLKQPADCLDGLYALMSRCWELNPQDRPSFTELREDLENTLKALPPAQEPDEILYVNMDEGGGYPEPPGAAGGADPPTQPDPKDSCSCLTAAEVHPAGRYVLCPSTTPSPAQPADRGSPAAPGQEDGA
Text: (§1) The selectivity of SLC-391 was further evaluated against a panel of 320 protein kinases from the human kinome using a radiometric phosphotransferase assay.

TYRO3 = TYRO3 (Homo sapiens, UniProt Q06418); experiment: TYRO3 kinase inhibition; type: biochemical
Text: as §1

MER [6] = biological target: T2, MER (Homo sapiens, UniProt Q12866); experiment: MER kinase inhibition; type: biochemical
T2 sequence (Q12866 21-999): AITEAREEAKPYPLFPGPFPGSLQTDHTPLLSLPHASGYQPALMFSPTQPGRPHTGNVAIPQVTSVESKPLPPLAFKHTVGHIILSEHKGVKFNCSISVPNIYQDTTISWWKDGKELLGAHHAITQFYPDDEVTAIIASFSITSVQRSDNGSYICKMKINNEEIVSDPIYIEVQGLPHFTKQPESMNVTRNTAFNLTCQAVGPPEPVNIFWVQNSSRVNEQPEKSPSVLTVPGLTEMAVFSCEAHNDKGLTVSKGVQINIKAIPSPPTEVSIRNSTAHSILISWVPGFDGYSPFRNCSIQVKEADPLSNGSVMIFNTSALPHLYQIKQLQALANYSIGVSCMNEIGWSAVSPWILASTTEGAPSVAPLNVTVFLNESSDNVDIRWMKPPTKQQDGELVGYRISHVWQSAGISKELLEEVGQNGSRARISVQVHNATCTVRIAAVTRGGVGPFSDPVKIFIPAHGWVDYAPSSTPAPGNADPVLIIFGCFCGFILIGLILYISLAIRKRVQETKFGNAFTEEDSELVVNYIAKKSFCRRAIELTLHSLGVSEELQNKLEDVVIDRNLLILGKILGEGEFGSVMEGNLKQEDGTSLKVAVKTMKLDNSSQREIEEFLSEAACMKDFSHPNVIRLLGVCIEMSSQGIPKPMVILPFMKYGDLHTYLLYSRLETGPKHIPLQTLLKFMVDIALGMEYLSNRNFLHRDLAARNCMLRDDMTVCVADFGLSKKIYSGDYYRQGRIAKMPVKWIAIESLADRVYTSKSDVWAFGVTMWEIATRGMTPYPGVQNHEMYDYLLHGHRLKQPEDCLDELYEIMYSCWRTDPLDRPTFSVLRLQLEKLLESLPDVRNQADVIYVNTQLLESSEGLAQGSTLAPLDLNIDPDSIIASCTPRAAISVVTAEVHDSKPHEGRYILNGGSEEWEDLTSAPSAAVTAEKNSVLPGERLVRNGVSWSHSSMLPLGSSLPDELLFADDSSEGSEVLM
Text: as §1

VEGFR1 = biological target: T3, VEGFR1 (Homo sapiens, UniProt P17948); experiment: In vitro BaF3 cell assay, panel of 93 receptor tyrosine kinases; type: cell-based; conditions: at 100 nM
T3 construct: expressed in transfected cells; host or cells: BaF3

FGFR3 = biological target: T4, FGFR3 (Homo sapiens, UniProt P22607); experiment: as above; type: cell-based; conditions: at 100 nM
T4 construct: expressed in transfected cells; host or cells: BaF3

ALK1 = ALK1 (Homo sapiens, UniProt P37023); experiment: Radiometric phosphotransferase assay, panel of 320 protein kinases; type: biochemical
Text: as §1

Aurora C = Aurora C (Homo sapiens, UniProt Q9UQB9); experiment: as above; type: biochemical
Text: as §1

EPHA6 = EPHA6 (Homo sapiens, UniProt Q9UF33); experiment: as above; type: biochemical
Sequence of EPHA6 (Q9UF33 23-1036): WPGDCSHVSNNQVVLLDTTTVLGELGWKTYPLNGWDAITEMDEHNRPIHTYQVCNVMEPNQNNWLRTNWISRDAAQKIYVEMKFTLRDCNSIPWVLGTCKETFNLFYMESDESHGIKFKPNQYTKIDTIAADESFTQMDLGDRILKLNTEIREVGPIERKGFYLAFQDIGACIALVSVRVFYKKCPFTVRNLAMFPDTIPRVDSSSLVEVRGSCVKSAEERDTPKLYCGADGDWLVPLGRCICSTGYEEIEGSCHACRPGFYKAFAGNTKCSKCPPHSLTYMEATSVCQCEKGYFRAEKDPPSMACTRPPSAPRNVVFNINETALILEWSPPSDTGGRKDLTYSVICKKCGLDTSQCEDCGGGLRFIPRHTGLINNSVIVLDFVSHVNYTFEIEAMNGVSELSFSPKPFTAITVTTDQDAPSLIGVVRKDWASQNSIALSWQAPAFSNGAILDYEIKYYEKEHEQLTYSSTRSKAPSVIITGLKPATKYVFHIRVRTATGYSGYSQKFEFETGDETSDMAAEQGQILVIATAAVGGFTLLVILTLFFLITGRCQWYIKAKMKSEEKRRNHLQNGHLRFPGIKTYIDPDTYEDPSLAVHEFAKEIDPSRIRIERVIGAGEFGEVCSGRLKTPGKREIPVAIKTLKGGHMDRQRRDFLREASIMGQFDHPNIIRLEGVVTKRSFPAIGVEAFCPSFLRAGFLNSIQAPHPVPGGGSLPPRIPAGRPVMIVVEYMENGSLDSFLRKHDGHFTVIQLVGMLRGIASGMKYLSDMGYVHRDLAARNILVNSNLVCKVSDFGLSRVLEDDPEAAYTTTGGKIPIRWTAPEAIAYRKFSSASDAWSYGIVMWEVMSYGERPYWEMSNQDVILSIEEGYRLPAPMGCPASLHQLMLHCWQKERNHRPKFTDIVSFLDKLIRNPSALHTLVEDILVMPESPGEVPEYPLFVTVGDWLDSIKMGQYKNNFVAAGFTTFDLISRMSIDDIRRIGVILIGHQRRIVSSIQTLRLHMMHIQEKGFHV
Text: as §1

NUAK1 = NUAK1 (Homo sapiens, UniProt O60285); experiment: as above; type: biochemical
Sequence of NUAK1 (O60285 whole entry): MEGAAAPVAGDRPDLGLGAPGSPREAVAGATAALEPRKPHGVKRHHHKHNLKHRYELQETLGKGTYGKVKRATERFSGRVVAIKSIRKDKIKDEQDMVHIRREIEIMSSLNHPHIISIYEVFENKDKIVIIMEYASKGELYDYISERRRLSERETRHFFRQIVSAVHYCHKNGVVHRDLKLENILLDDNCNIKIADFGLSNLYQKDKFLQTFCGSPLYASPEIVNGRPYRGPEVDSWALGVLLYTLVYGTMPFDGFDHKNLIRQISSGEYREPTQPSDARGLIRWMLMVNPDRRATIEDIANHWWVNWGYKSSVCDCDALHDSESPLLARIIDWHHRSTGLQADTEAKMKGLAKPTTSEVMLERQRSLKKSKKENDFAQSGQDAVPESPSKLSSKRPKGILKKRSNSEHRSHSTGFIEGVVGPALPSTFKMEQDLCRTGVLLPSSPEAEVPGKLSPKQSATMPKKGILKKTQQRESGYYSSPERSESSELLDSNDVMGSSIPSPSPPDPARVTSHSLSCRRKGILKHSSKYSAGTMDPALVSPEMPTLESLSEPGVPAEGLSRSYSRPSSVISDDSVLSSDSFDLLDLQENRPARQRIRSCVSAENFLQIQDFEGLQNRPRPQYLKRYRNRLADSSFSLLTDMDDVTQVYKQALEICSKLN
Text: as §1

RET = RET (Homo sapiens, UniProt P07949); experiment: as above; type: biochemical
Text: as §1

ROS1 = ROS1 (Homo sapiens, UniProt P08922); experiment: as above; type: biochemical
Text: as §1

c-MET = c-MET (Homo sapiens, UniProt P08581); experiment: as above; type: biochemical
Sequence of c-MET (P08581 25-1390): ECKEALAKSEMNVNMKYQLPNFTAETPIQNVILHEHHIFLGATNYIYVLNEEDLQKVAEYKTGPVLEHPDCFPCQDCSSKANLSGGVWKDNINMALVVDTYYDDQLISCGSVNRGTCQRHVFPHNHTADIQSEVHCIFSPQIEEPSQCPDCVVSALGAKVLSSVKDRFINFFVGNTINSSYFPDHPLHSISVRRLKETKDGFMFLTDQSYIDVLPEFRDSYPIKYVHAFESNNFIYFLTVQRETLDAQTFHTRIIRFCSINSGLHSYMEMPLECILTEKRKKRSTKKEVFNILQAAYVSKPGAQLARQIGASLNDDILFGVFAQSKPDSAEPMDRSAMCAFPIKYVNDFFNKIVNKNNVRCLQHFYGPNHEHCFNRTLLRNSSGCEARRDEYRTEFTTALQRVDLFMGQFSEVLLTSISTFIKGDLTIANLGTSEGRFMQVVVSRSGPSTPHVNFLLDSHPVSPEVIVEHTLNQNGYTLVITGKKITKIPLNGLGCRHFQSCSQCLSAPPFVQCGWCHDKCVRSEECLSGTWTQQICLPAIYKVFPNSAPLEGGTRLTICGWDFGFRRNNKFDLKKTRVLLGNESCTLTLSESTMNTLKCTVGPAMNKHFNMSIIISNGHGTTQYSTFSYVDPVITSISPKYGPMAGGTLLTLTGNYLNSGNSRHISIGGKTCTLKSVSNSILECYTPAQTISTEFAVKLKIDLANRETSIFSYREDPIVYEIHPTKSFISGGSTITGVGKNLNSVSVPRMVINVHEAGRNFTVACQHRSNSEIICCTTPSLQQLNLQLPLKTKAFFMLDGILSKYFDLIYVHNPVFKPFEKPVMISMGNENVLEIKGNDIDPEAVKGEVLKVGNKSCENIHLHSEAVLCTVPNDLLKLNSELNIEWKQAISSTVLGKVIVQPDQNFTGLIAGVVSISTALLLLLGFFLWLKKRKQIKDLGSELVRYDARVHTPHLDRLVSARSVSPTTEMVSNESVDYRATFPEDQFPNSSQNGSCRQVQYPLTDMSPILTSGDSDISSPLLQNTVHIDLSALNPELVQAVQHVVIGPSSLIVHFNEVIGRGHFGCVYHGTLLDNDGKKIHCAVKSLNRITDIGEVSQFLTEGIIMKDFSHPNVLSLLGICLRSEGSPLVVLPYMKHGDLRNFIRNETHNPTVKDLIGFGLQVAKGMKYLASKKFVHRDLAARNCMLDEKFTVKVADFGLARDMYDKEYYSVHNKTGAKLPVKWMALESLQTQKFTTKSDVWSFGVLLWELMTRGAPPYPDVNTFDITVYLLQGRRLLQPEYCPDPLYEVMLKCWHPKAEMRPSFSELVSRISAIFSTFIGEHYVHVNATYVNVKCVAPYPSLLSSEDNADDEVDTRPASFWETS
Text: as §1

[7] = system: Gas6-induced phosphorylation of Akt; experiment: Inhibition of Gas6-induced phosphorylation of Akt in A549; type: cell-based; conditions: human NSCLC cell line A549
4T1 = experiment: Cellular proliferation, 4T1; type: cell-based; conditions: Mus musculus
K562 = experiment: Cellular proliferation, K562; type: cell-based; conditions: Homo sapiens
A549 cells = experiment: Anchorage-independent cell proliferation; type: cell-based, human; conditions: at 1 μM in A549 cells
A549 = experiment: Cell migration; type: cell-based, human; conditions: at 1 μM
A549 cell invasion = experiment: Cell invasion; type: cell-based; conditions: Homo sapiens
tumor growth = experiment: In vivo tumor growth inhibition, oral administration
Text: (§2) Significant in vivo pharmacology studies for SLC-391 have been completed in support of its oncology indication. The bioavailability of SLC-391 in vivo when administered orally (PO) (twice-daily [BID] and once-daily [QD]) were studied.

phosphorylated Akt = experiment: Phosphorylated Akt in tumor xenograft samples; type: in vivo; conditions: oral administration
Text: as §2

hERG = hERG (Homo sapiens, UniProt Q12809); experiment: Standard hERG assay; type: biochemical
[8] = system: Salmonella tester strain TA98; experiment: Ames screening test, TA98; type: cell-based; conditions: TA98, with and without liver S9 metabolic activation
Text: (§3) In genotoxicity screening studies, SLC-391 was negative in Salmonella tester strains TA98 and TA100 (Ames screening test) with and without liver S9 metabolic activation.

[9] = system: Salmonella tester strain TA100; experiment: Ames screening test, TA100; type: cell-based; conditions: TA100, with and without liver S9 metabolic activation
Text: as §3

[10] = Flowscreen genotoxicity assay; type: cell-based
[11] = In vivo rat micronucleus assay; conditions: 70 mg/kg/day (highest dose)
SARS-CoV-2 [12] = type: cell-based; conditions: Vero E6 cells
[13] = system: SARS-CoV-2 spike protein binding to ACE2; type: cell-based, SARS-CoV-2 / human; conditions: 1 μM, CHO-hACE2 cells, luciferase
influenza virus (Flu A) = type: cell-based; conditions: for Fold of virus reduction: compared with virus control
[14] = system: human influenza virus (FluAPR834); conditions: Flu A, RPMI2650 cells
[15] = in vivo, po
in vivo = conditions: both, Sprague-Dawley, rat
in vitro [16] = conditions: human
in vitro [17] = conditions: human; remark: listed apart in the source
[18] = system: human influenza virus (FluAPR834); experiment: microbe, parasite or virus in culture; conditions: unidentified influenza virus, RPMI-2650, in Homo sapiens, 96 h, read-out: EC50 (inhibit CPE by 50%)
AXL [19] = biological target: T1, AXL; experiment: In vitro BaF3 cell assay, panel of 93 receptor tyrosine kinases; type: cell-based; parameters: expressed in transfected cells; host or cells: BaF3; conditions: at 100 nM
MER [20] = biological target: T2, MER; experiment: as above; type: cell-based; parameters: expressed in transfected cells; host or cells: BaF3; conditions: at 100 nM
[21] = 28-day oral gavage GLP toxicology study in Beagle dogs
[22] = Phase I study in subjects with solid tumors (SLC-391-101); conditions: clinical drug product, oral
[23] = 28-day oral gavage GLP toxicology study in Sprague-Dawley rats
[24] = 28-day oral gavage, Beagle dogs

Nc1nc(Nc2ccc3c(c2)CC[C@@H](N2CCCC2)CC3)nn1-c1cc2c(nn1)-c1ccccc1CCC2 [BGB324]
effect against lethal Ebola virus infection (Ebola virus): had effect against lethal Ebola virus infection
protection from SARS-CoV-2-induced cytopathic effect (SARS-CoV-2 [1]; preliminary in vitro studies): protect cells from SARS-CoV-2-induced cytopathic effect
inhibition of SARS-CoV-2 infection of cells (SARS-CoV-2 [1]; subsequent studies): potently inhibit SARS-CoV-2 infection of cells
effect on ZEB1 (ZEB1): downregulates ZEB1

CCOc1ccn(-c2ccc(F)cc2)c(=O)c1C(=O)Nc1ccc(Oc2ccnc(N)c2Cl)c(F)c1 [BMS-777607]
concentrations effectively blocking Gas6-triggered receptor activation (AXL [2]): 30 to 3600 nM
concentrations effectively blocking Gas6-triggered receptor activation (MER [3]): 30 to 3600 nM
susceptibility of treated dendritic cells to virus infection [4]: much less susceptible to virus infection than untreated cells

Nc1ncc(-c2cnn(C3CCNCC3)c2)cc1-c1nnc(CC2CC2)o1 [SLC-391, 3-(5-(cyclopropylmethyl)-1,3,4-oxadiazol-2-yl)-5-(1-(piperidin-4-yl)-1H-pyrazol-4-yl)pyridin-2-amine]
IC50 (AXL [5]): 9.6 nM
IC50 (TYRO3): 42.3 nM
IC50 (MER [6]): 63.5 nM
inhibition at 0.1 µM (VEGFR1): 64%
inhibition at 0.1 µM (FGFR3): 64%
IC50 (ALK1): 31 nM
IC50 (Aurora C): 51 nM
IC50 (EPHA6): 45 nM
IC50 (NUAK1): 62 nM
IC50 (RET): 28 nM
IC50 (ROS1): 23 nM
IC50 (c-MET): 12 nM
IC50 [7]: 290 nM
IC50 (4T1): 1050 nM
IC50 (K562): 3450 nM
impairment of anchorage-independent cell proliferation (A549 cells): complete inhibition
reduction of cell migration (A549): less than 40%
inhibition at 0.2 µM (A549 cell invasion): ~75%
tumor growth inhibition (TGI) (tumor growth; 50 mg/kg BID): 60%
tumor growth inhibition (TGI) (tumor growth; 75 mg/kg BID): 67%
reduction in levels of phosphorylated Akt (phosphorylated Akt): 41%
IC50 (hERG): > 30000 nM
Ames screening test result [8]: negative
Ames screening test result [9]: negative
Flowscreen assay classification [10]: potentially genotoxic with an aneugenic mechanism of action
genotoxic response, rat micronucleus assay [11]: potential genotoxic response was observed
inhibition of SARS-CoV-2 infection (qPCR cycles) (SARS-CoV-2 [12]; 0.01 μM, for 24 hours): effectively inhibit the viral infection
inhibition of SARS-CoV-2 infection (qPCR cycles) (SARS-CoV-2 [12]; 1 μM, up to 72 hours): high degree of viral inhibition
neutralization of SARS-CoV-2 pseudovirus [13]: completely neutralize
TCID50/mL (influenza virus (Flu A); 0.003 uM): 19999 TCID50/mL
Fold of virus reduction (influenza virus (Flu A); 0.003 uM): 34.8 fold
TCID50/mL (influenza virus (Flu A); 0.4 uM): 9290 TCID50/mL
Fold of virus reduction (influenza virus (Flu A); 0.4 uM): 74.9 fold
TCID50/mL (influenza virus (Flu A); 10 uM): 731 TCID50/mL
Fold of virus reduction (influenza virus (Flu A); 10 uM): 952.9 fold
therapeutic index (TI), TC50 divided by EC50 [14]: above 71.4
exposure in human subjects [15]: excellent exposure
NOAEL at 28 day (in vivo): 30 mg/kg/day
viability at 0.003 µM (in vitro [16]): 100%
viability at 0.4 µM (in vitro [16]): 95%
viability at 10 µM (in vitro [16]): 80%
CC50 (in vitro [17]): > 10000 nM
EC50 [18]: 140 nM
inhibition at 0.1 µM (AXL [19]): 69%
inhibition at 0.1 µM (MER [20]): 61%
HNSTD ([21]; 28-day dog GLP toxicology study, as defined in ICH S9): 6 mg/kg/day
effects on heart rate (HR) [21, 24]: no effects
effects on respiratory parameters [21, 24]: no SLC-391-related effects
effects on morphology of P-QRS-T complexes, PR interval, QT, QTc intervals, QRS complex duration ([21]; 28-day oral gavage, Beagle dogs, males and females): no observable effects
human equivalent dose (HED) of dog HNSTD ([21]; from 6 mg/kg/day in dog): 3.3 mg/kg
tolerability in human subjects [22]: well tolerated
severe toxic dose ([23]; 28-day rat GLP study, highest dose tested): 70 mg/kg/day
human equivalent dose (HED) of rat severe toxic dose ([23]; from 70 mg/kg/day in rat): 11.3 mg/kg
